Source: patent US20110039762A1, “TARGETED ANTIMICROBIAL MOIETIES” (C3 JIAN, INC., priority 2009, published 2011)
Entries after “also recorded” stand apart in the source; their conditions may differ.

test system: microorganisms (e.g., bacteria, yeasts, fungi); assay: Targeting peptide binding to target microorganisms (Table 3); conditions: microorganism the targeting peptide binds; binding in aqueous buffers varied by peptide solubility, preferably 1x PBS

Substance	Target(s)
1T-287 (KGYPLPFQYRLNNH; Peptide with targeting and/or antimicrobial activity) [Peptide 1T-287]	P. gingivalis; also recorded: T. denticola; also recorded: S. gordonii; also recorded: S. mitis; also recorded: S. mutans; also recorded: S. oralis; also recorded: S. salivarious; also recorded: S. sanguinis
1T-63 (EPLILKELVRNLFLFCYARALR; Peptide with targeting and/or antimicrobial activity) [Peptide 1T-63]	S. aureus; also recorded: S. epidermidis; also recorded: C. jeikeium; also recorded: C. xerosis; also recorded: C. striatum; also recorded: P. aeruginosa
1T-96 (VAGACAQPFGGQ; Peptide with targeting and/or antimicrobial activity) [Peptide 1T-96]	S. gordonii; also recorded: S. mitis; also recorded: S. mutans; also recorded: S. oralis; also recorded: S. sanguinis
1T-50 (HSDEPIPNILFKSDSVH; Peptide with targeting and/or antimicrobial activity) [Peptide 1T-50]	P. aeruginosa
1T-295 (KYKLKKIIL; Peptide with targeting and/or antimicrobial activity) [Peptide 1T-295]	S. mitis; also recorded: S. salivarious; also recorded: S. sanguinis
1T-268 (PITPKKEKCGLGTYAPKNPVFSKSRV; Peptide with targeting and/or antimicrobial activity) [Peptide 1T-268]	F. nucleatum; also recorded: S. mutans; also recorded: S. oralis; also recorded: S. sanguinis
1T-122 (GAIPDPVTHRVDWEEDHQTRPSR; Peptide with targeting and/or antimicrobial activity) [Peptide 1T-122]	S. mitis
1T-90 (RNVIGQVL; Peptide with targeting and/or antimicrobial activity) [Peptide 1T-90]	S. gordonii; also recorded: S. mitis; also recorded: S. mutans; also recorded: S. oralis; also recorded: S. sanguinis
1T-81 (AIATGLDIVDGKFDGYLWA; Peptide with targeting and/or antimicrobial activity) [Peptide 1T-81]	S. pneumoniae
1T-26 (LTILPTTFFAIIVPILAVAFIAYSGFKIKGIVEHKDQW; Peptide with targeting and/or antimicrobial activity) [Peptide 1T-26]	S. mutans; also recorded: S. aureus; also recorded: S. epidermidis; also recorded: C. jeikeium; also recorded: C. xerosis; also recorded: C. striatum; also recorded: P. aeruginosa
TT-307 (NGDKKAKEELDKWDEVIKELNIQF; Peptide with targeting and/or antimicrobial activity)	F. nucleatum
1T-70 (NRQAQGERAHGEQQG; Peptide with targeting and/or antimicrobial activity) [Peptide 1T-70]	S. aureus; also recorded: C. jeikeium; also recorded: P. aeruginosa
1T-25 (VGLDVSVLVLFFGLQLLSVLLGAMIR; Peptide with targeting and/or antimicrobial activity) [Peptide 1T-25]	S. aureus; also recorded: S. epidermidis; also recorded: C. xerosis; also recorded: C. striatum; also recorded: P. aeruginosa
1T-93 (AMRSVNQA; Peptide with targeting and/or antimicrobial activity) [Peptide 1T-93]	S. epidermidis; also recorded: S. gordonii; also recorded: S. mitis; also recorded: S. mutans; also recorded: S. oralis; also recorded: S. sanguinis

same assay, conditions: microorganism(s) the targeting peptide binds; binding in aqueous buffers depending on peptide solubility, preferably 1x PBS

Substance	Target(s)
PF-256 (EYFKQVYVKNEKIYSFWICKDLSPKEAAKRAEDILVKLK; Peptide with targeting and/or antimicrobial activity)	S. epidermidis
PF-174 (RGGDSPARRRPGLAGPGGPG; Peptide with targeting and/or antimicrobial activity)	S. epidermidis; also recorded: P. aeruginosa; also recorded: C. jeikeium
PF-104 (ERTAVNDLWI; Peptide with targeting and/or antimicrobial activity)	MRSA and C. jeikeium
PF-254 (FIYGVGFVPHFWLWKWLFSPWIAWPLMLLGYYIWFLT; Peptide with targeting and/or antimicrobial activity)	S. epidermidis; also recorded: M. luteus; also recorded: P. aeruginosa; also recorded: A. baumannii
HIKETR (Peptide with targeting and/or antimicrobial activity) [PF-222]	S. epidermidis
PF-232 (FDQLYALEREGKLDELLA; Peptide with targeting and/or antimicrobial activity)	S. epidermidis; also recorded: M. luteus
PF-265 (MKTLFFPLFLIIFVLIIQALDQSYQKKIGISKPQKHPEFMQ; Peptide with targeting and/or antimicrobial activity)	S. epidermidis; also recorded: M. luteus; also recorded: A. baumannii
PF-228 (NQLGSQAFAQL; Peptide with targeting and/or antimicrobial activity)	S. mutans
MLTSRKKRLKKIVEEQNKKDESI [PF-336]	S. mutans; also recorded: E. coli
PF-352 (RVKKIG; Peptide with targeting and/or antimicrobial activity)	C. jeikeium
PF-213 (MTTGVDFIIEKV; Peptide with targeting and/or antimicrobial activity)	S. epidermidis
PF-141 (VVRRFQGM; Peptide with targeting and/or antimicrobial activity)	S. epidermidis and M. luteus and C. albicans and MRSA and C. jeikeium
PF-219 (FLALAVIAGLFKVILIYAAPYLK; Peptide with targeting and/or antimicrobial activity)	S. epidermidis; also recorded: M. luteus; also recorded: P. aeruginosa; also recorded: A. baumannii

same assay, conditions: microorganism(s) the targeting peptide binds; peptide binding conducted in aqueous buffers varied by peptide solubility, preferably 1x PBS

Substance	Target(s)
PF-508 (VSTFGKVVKVVDEK; Peptide with targeting and/or antimicrobial activity)	S. mutans
PF-463 (MVILVFSLIFIFTDNYLVYQSKSIKEDVMI; Peptide with targeting and/or antimicrobial activity)	S. epidermidis; also recorded: E. coli; also recorded: P. aeruginosa; also recorded: C. albicans; also recorded: S. pneumoniae; also recorded: E. faecalis; also recorded: M. smegmatis
PF-409 (DLVQSILSEFKKSG; Peptide with targeting and/or antimicrobial activity)	S. epidermidis and MRSA and C. jeikeium and C. jejuni
PF-486 (MQKEGEEDY; Peptide with targeting and/or antimicrobial activity)	S. mutans
PF-568 (TQAVQVKTAQAQQQ; Peptide with targeting and/or antimicrobial activity)	S. epidermidis
PF-501 (GSTAHKSPIGSTNNQWGMKKTPTD; Peptide with targeting and/or antimicrobial activity)	S. mutans
PF-500 (MGIFKEEKIKFIDCKGEEVILKIKIKDIKK; Peptide with targeting and/or antimicrobial activity)	S. mutans; also recorded: E. coli
PF-507 (LALSIANLFKKKA; Peptide with targeting and/or antimicrobial activity)	S. mutans; also recorded: E. coli
PF-502 (NKGKQMQDQTGKQPIVDNG; Peptide with targeting and/or antimicrobial activity)	S. mutans

same assay, conditions: peptide binding in aqueous buffers varied by peptide solubility; preferably 1x PBS

Substance	Target(s) (microorganisms bound by the targeting peptide)
PF-772 (TKESSS; Peptide with targeting and/or antimicrobial activity)	S. epidermidis and C. albicans and MRSA and S. pneumoniae and C. jeikeium
PF-711 (KTAGPTGTIYKTN; Peptide with targeting and/or antimicrobial activity)	S. mutans
PF-S015 (IENLERGARRPP; Peptide with targeting and/or antimicrobial activity)	S. epidermidis and MRSA and C. jeikeium
PF-784 (MAMTTVDNIVGLVIAVALMAFLFAALLFPEKF; Peptide with targeting and/or antimicrobial activity)	Mycobacteria spp.
PF-C271 (FFPSYYSIIITYF; Peptide with targeting and/or antimicrobial activity)	A. naeslundii; also recorded: F. nucleatum; also recorded: P. gingivalis; also recorded: S. mutans; also recorded: T. denticola
PF-C068 (LNLFASI; Peptide with targeting and/or antimicrobial activity)	A. naeslundii; also recorded: F. nucleatum; also recorded: S. mutans
PF-C285 (FTIIELKKQKIKHGENNKKTAHPLNEPFCARA; Peptide with targeting and/or antimicrobial activity)	A. naeslundii; also recorded: F. nucleatum; also recorded: P. gingivalis; also recorded: S. mutans; also recorded: T. denticola
PF-778 (MNLILTAHGT; Peptide with targeting and/or antimicrobial activity)	Mycobacteria spp.
PF-788 (GLITVFAGTARILQLRRAAKKTHAAALR; Peptide with targeting and/or antimicrobial activity)	Mycobacteria spp.
PF-679 (CRARFIRR; Peptide with targeting and/or antimicrobial activity)	S. mutans; also recorded: E. coli
PF-648 (ARRYPAAGS; Peptide with targeting and/or antimicrobial activity)	S. mutans; also recorded: E. coli
PF-789 (PRGAQSGHG; Peptide with targeting and/or antimicrobial activity)	Mycobacteria spp.
